Values quoted from earlier work as cited in patent US20070135435A1, “Certain chemical entities, compositions, and methods” (priority 2005, published 2007).

System: A549 cells

| Structure (SMILES) | GI50 |
| --- | --- |
| CC(=O)O[C@H]1C(=O)[C@@]2(C)[C@H]([C@H](OC(=O)c3ccccc3)[C@]3(O)C[C@H](OC(=O)[C@H](O)[C@@H](NC(=O)c4ccccc4)c4ccccc4)C(C)=C1C3(C)C)[C@]1(OC(C)=O)CO[C@@H]1C[C@@H]2O [paclitaxel] | 4 nM |
| NC(=O)NO [hydroxyurea] | 500000 nM |
| COc1cccc2c1C(=O)c1c(O)c3c(c(O)c1C2=O)C[C@@](O)(C(=O)CO)C[C@@H]3O[C@H]1C[C@H](N)[C@H](O)[C@H](C)O1 [doxorubicin] | 63 nM |
| O=c1[nH]cc(F)c(=O)[nH]1 [5-fluorouracil] | 1000 nM |
